How the values were obtained:
[1] = Aqueous solubility of compound in water at pH 7.4 incubated at 20 degC by HPLC-UV analysis; assay type: physicochemical
HepG2 [2] = test: Antiproliferative activity against human HepG2 cells measured after 48 hrs by SRB assay; assay type: functional, cell-based; conditions: Homo sapiens, HepG2, 48 h
MCF7 = test: Antiproliferative activity against human MCF7 cells measured after 48 hrs by SRB assay; assay type: functional, cell-based; conditions: Homo sapiens, MCF7, 48 h
Bel-7402 = test: Antiproliferative activity against human Bel-7402 cells measured after 48 hrs by SRB assay; assay type: functional, cell-based; conditions: Homo sapiens, Bel-7402, 48 h
MDA-MB-231 = test: Antitumor activity against human MDA-MB-231 cells xenografted in BALB/c nude mouse assessed as reduction in tumor burden at 60 mg/kg, ip qod for 14 to 29 days relative to control; assay type: functional; design: scale not given: the % may be the effect or the level left; conditions: time 14-29 day
[3] = Toxicity in human MDA-MB-231 cells xenografted BALB/c nude mouse assessed as effect on body weight at 60 mg/kg, ip qod for 14 to 29 days measured every two days during compound dosing; assay type: organism-based; conditions: in vivo, time 14-29 day
[4] = Acute toxicity in Kunming mouse assessed as survival at 100 mg/kg, iv measured for 7 days relative to control; assay type: organism-based; conditions: in vivo, time 7 day
[5] = Acute toxicity in Kunming mouse assessed as survival at 50 mg/kg, iv measured for 7 days relative to control; assay type: organism-based; conditions: in vivo, time 7 day
[6] = Acute toxicity in Kunming mouse assessed as survival at 25 mg/kg, iv measured for 7 days relative to control; assay type: organism-based; conditions: in vivo, time 7 day
[7] = Acute toxicity in Kunming mouse assessed as survival at 200 mg/kg, iv measured for 7 days relative to control; assay type: organism-based; conditions: in vivo, time 7 day
[8] = Acute toxicity in iv dosed Kunming mouse measured for 7 days; assay type: organism-based; conditions: in vivo, time 7 day
HepG2 [9] = test: Antitumor activity against human HepG2 cells xenografted in BALB/c nude mouse assessed as tumor volume at 10 mg/kg, iv qod for 14 to 29 days measured on day 1 (reference value: 154.04 +/- 3120); assay type: functional; conditions: time 14-29 day
HepG2 [10] = test: Antitumor activity against human HepG2 cells xenografted in BALB/c nude mouse assessed as tumor volume at 10 mg/kg, iv qod for 14 to 29 days measured on day 29 (reference value: 2,838.93 +/- 737.40); assay type: functional; conditions: time 14-29 day
HepG2 [11] = test: Antitumor activity against human HepG2 cells xenografted in BALB/c nude mouse assessed as tumor growth inhibition at 10 mg/kg, iv qod for 14 to 29 days relative to control; assay type: functional; conditions: time 14-29 day, read-out: TGI
[12] = Toxicity in human HepG2 cells xenografted BALB/c nude mouse assessed as change in tumor weight at 10 mg/kg, iv qod for 14 to 29 days (reference value: 4.52 g); assay type: organism-based; conditions: in vivo, time 14-29 day
[13] = Acute toxicity in Kunming mouse assessed as survival at 75 mg/kg, iv measured for 7 days relative to control; assay type: organism-based; conditions: in vivo, time 7 day

With `COc1ccc(N(CCOC(=O)CN2CCN(C)CC2)S(=O)(=O)c2ccc3c(c2)c2ccccc2n3C)c(OC)n1.Cl` the solubility [1] was > 30 mg/mL.

For `COc1ccc(NS(=O)(=O)c2ccc3c(c2)c2ccccc2n3C)c(OC)n1`, the IC50 (HepG2 [2]) was 95 nM, the IC50 (MCF7) was 680 nM and the solubility [1] was < 0.001 mg/mL.

`COc1ccc(N(C(=O)CCN2CCCCC2)S(=O)(=O)c2ccc3c(c2)c2ccccc2n3C)c(OC)n1` showed an IC50 (HepG2 [2]) of 350 nM, an IC50 (Bel-7402) of 730 nM and an IC50 (MCF7) of 1160 nM. The Activity (MDA-MB-231) was 40.1% and the Activity [3] was “Non-Toxic”.

Molecule `COc1ccc(N(CCN2CCC(N3CCCC3)CC2)S(=O)(=O)c2ccc3c(c2)c2ccccc2n3C)c(OC)n1` has an IC50 (HepG2 [2]) of 3370 nM, an IC50 (Bel-7402) of 7810 nM and an IC50 (MCF7) of 21000 nM. For the same molecule, the survival at 168 h [4] was 16.7%, the survival at 168 h [5] was 83.3% and the survival at 168 h [6] was 100%. It also gave a survival at 168 h [7] of 0%, an LD50 at 168 h [8] of 70.7 mg/kg and an Activity (HepG2 [9]) of 85.64 mm3. It also gave an Activity (HepG2 [10]) of 1237.34 mm3, an inhibition in vivo at 10 mg/kg (HepG2 [11]) of 51.5% and an Activity [12] of 1.72 g.

For `COc1ccc(N(CCCn2ccnc2)S(=O)(=O)c2ccc3c(c2)c2ccccc2n3C)c(OC)n1.Cl`, the solubility [1] was 18.4 mg/mL.

In the case of `COc1ccc(N(CCN2CCC3(CCN(C)CC3)C2)S(=O)(=O)c2ccc3c(c2)c2ccccc2n3C)c(OC)n1.Cl`, the solubility [1] is reported as > 30 mg/mL.

Work on `COc1ccc(N(CCN2CCOCC2)S(=O)(=O)c2ccc3c(c2)c2ccccc2n3C)c(OC)n1.Cl` yielded a solubility [1] of 0.44 mg/mL.

Work on `COc1ccc(N(CCCN2CCN(C)CC2)S(=O)(=O)c2ccc3c(c2)c2ccccc2n3C)c(OC)n1.Cl` yielded a solubility [1] of 20.6 mg/mL.

In the case of `COc1ccc(N(CCN2CCN(C)CC2)S(=O)(=O)c2ccc3c(c2)c2ccccc2n3C)c(OC)n1.Cl`, the solubility [1] is reported as 25.7 mg/mL.

`COc1ccc(N(CCN2CCSCC2)S(=O)(=O)c2ccc3c(c2)c2ccccc2n3C)c(OC)n1.Cl` gave a solubility [1] of 0.27 mg/mL.

`COc1ccc(N(CCN)S(=O)(=O)c2ccc3c(c2)c2ccccc2n3C)c(OC)n1.Cl` showed a solubility [1] of 0.24 mg/mL.

For `COc1ccc(N(CC(N)=O)S(=O)(=O)c2ccc3c(c2)c2ccccc2n3C)c(OC)n1.Cl`, the solubility [1] was 0.02 mg/mL.

`COc1ccc(N(CCN(C)C)S(=O)(=O)c2ccc3c(c2)c2ccccc2n3C)c(OC)n1.Cl` gave a solubility [1] of 29.1 mg/mL.

`COc1ccc(N(CCN(C)C)S(=O)(=O)c2ccc3c(c2)c2ccccc2n3C)c(OC)n1` gave an IC50 (HepG2 [2]) of 1460 nM, an IC50 (Bel-7402) of 5320 nM and an IC50 (MCF7) of 5330 nM. It also gave a survival at 168 h [4] of 0%, a survival at 168 h [13] of 66.7% and a survival at 168 h [5] of 83.3%. It also gave a survival at 168 h [6] of 100%, an LD50 at 168 h [8] of 71.9 mg/kg and an Activity (HepG2 [9]) of 90.79 mm3. The Activity (HepG2 [10]) was 1322.82 mm3, the inhibition in vivo at 10 mg/kg (HepG2 [11]) was 52.8% and the Activity [12] was 0.87 g.

In the case of `COc1ccc(N(CCNC(=O)CN)S(=O)(=O)c2ccc3c(c2)c2ccccc2n3C)c(OC)n1.Cl.Cl`, the solubility [1] is reported as > 30 mg/mL.

`COc1ccc(N(CCOP(=O)([O-])[O-])S(=O)(=O)c2ccc3c(c2)c2ccccc2n3C)c(OC)n1.Cl.[Na+].[Na+]` showed a solubility [1] of 22.4 mg/mL.
